Reference: paper PMC10989772 (mLife, 2022)
pKd: −log10 of the molar value.

What was measured:
[1] = target: Larg1 (lpg0081, 16–428aa) (Legionella pneumophila, UniProt Q5ZZD0)
Larg1 (Lpg0081) = Larg1 (Lpg0081) (Legionella pneumophila, UniProt Q5ZZD0)
Chain of Larg1 (Lpg0081) (Q5ZZD0 1-441 limits assumed): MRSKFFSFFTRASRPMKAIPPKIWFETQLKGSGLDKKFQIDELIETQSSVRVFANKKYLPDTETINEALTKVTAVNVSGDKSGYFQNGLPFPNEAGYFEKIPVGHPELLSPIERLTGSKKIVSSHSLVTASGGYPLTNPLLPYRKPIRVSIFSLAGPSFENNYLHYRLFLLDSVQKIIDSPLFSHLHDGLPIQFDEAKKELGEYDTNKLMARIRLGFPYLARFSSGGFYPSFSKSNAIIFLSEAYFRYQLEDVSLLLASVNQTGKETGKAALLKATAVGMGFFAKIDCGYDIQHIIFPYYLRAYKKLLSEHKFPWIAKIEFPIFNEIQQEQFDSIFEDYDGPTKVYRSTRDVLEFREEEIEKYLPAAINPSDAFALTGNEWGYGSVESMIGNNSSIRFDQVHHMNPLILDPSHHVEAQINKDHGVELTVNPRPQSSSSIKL

Chain of Larg1 (lpg0081, 16–428aa) (Q5ZZD0 16-428 limits assumed): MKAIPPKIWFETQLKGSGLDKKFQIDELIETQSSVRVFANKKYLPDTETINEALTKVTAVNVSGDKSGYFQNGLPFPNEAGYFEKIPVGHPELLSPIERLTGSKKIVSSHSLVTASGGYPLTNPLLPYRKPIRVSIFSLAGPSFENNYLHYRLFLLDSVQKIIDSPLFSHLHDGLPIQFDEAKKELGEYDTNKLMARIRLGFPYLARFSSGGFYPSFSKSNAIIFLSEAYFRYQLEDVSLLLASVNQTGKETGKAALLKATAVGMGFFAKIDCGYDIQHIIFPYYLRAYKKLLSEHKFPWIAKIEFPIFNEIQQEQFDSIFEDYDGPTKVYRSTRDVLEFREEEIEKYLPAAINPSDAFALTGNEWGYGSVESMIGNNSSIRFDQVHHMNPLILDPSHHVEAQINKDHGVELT

## Nc1ncnc2c1ncn2[C@@H]1O[C@H](COP(=O)(O)OP(=O)(O)OC[C@H]2OC(O)[C@H](O)[C@@H]2O)[C@@H](O)[C@H]1O (some centres unmarked) [ADPR]
[1]
  X-ray crystal structure, 2.32 Å: to determine the structure of the Larg1‐ADPR complex (PDB:7W3S)
Larg1 (Lpg0081)
  pKd: 5.41
